Measured values: ChEMBL document CHEMBL5154848, “Synthesis of heterocyclic ring-fused analogs of HMG499 as novel degraders of HMG-CoA reductase that lower cholesterol” (Eur J Med Chem, 2022)

Columns and labels:
[1] = test system: CHO-K1; test: Downregulation of lovastatin-induced HMGCR expression in CHO-K1 cells incubated for 16 hrs by immunoblot analysis; type: functional, cell-based; conditions: Cricetulus griseus, dose 1-10 µM, DDE = dose-dependent effect
[2] = biological target: T1, 3-hydroxy-3-methylglutaryl-coenzyme A reductase (Cricetulus griseus) (UniProt P00347); test: Induction of degradation of wild type HMGCR in CHO-K1 cells by immunoblot analysis; type: cell-based; conditions: DDE = dose-dependent effect
T1 sequence (whole entry): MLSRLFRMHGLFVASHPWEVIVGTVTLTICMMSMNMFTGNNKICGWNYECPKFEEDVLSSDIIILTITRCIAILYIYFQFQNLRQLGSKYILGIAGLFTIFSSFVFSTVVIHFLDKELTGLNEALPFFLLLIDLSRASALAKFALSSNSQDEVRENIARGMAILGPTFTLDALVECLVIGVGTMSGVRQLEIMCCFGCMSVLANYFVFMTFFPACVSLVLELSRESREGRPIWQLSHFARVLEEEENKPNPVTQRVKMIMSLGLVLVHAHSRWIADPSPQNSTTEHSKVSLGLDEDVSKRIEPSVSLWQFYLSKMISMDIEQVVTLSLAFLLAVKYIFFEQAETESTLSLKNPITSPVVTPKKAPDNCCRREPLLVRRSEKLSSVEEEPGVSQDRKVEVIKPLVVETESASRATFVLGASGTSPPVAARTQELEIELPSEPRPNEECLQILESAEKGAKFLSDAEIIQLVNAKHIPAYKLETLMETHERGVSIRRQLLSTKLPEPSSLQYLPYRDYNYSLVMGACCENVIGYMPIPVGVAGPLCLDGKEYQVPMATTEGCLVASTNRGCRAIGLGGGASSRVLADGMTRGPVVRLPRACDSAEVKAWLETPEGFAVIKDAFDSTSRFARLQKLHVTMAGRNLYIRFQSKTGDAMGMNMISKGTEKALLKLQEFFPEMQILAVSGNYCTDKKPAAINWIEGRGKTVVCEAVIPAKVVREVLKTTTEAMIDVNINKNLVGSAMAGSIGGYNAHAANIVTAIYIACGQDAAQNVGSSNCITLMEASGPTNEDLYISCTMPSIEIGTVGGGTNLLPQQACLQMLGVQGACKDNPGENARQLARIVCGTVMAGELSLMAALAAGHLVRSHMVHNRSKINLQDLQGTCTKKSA

[3] = Downregulation of HMGCR expression in CHO-K1 cells assessed as fold change in HMGCR expression at 1 uM incubated for 16 hrs by immunoblot analysis (reference value: 1.0); type: functional, Cricetulus griseus
[4] = test system: LX-2; test: Downregulation of TGF-beta-1-induced TGF-beta-1 mRNA levels in serum starved human LX2 cells pretreated with TGF-beta-1 for 6 hrs followed by compound treatment for 24 hrs by SYBR green dye based qRT-PCR analysis; type: functional, cell-based; conditions: dose <= 2.0 µM, DDE = dose-dependent effect
[5] = Downregulation of HMGCR expression in CHO-K1 cells assessed as fold change in HMGCR expression at 3 uM incubated for 16 hrs by immunoblot analysis (reference value: 1.0); type: functional, Cricetulus griseus
[6] = Downregulation of HMGCR expression in CHO-K1 cells assessed as fold change in HMGCR expression at 10 uM incubated for 16 hrs by immunoblot analysis (reference value: 1.0); type: functional, Cricetulus griseus
[7] = biological target: T2, 3-hydroxy-3-methylglutaryl-coenzyme A reductase (Cricetulus griseus, UniProt P00347); test: Induction of degradation of hamster HMGCR (TM1-8)-GFP (1 to 346 residues) transfected in CHO-7 cells incubated for 16 hrs in sterol-depleted medium by fluorescence based microplate reader assay; type: cell-based
T2 sequence (P00347 whole entry): T1 sequence (whole entry)

[8] = test system: LX-2; test: Downregulation of TGF-beta-1-induced alpha-SMA mRNA levels in serum starved human LX2 cells pretreated with TGF-beta-1 for 6 hrs followed by compound treatment for 24 hrs by SYBR green dye based qRT-PCR analysis; type: functional, cell-based; conditions: dose <= 2.0 µM, DDE = dose-dependent effect
[9] = test system: RAW264.7; test: Downregulation of LPS-stimulated cholesterol levels in mouse RAW264.7 cells pretreated with LPS for 2 hrs followed by compound treatment for 24 hrs; type: functional, cell-based; conditions: dose <= 2.0 µM, DDE = dose-dependent effect
[10] = test system: LX-2; test: Downregulation of TGF-beta-1-induced TIMP1 mRNA levels in serum starved human LX2 cells pretreated with TGF-beta-1 for 6 hrs followed by compound treatment for 24 hrs by SYBR green dye based qRT-PCR analysis; type: functional, cell-based; conditions: dose <= 2.0 µM, DDE = dose-dependent effect
[11] = test system: LX-2; test: Downregulation of TGF-beta-1-induced cholesterol levels in human LX2 cells starved in serum free medium for 2 hrs followed by stimulation with TGF-beta-1 for 6 hrs and measured 24 hrs after compound treatment by; type: functional, cell-based; conditions: DDE = dose-dependent effect
[12] = biological target: T3, 3-hydroxy-3-methylglutaryl-coenzyme A reductase (Homo sapiens) (UniProt P04035); test: Induction of HMGCR-T7 (unknown origin) degradation transfected in CHO-K1 cells assessed as HMGCR ubiquitination preincubated in sterol-depleted medium for 16 hrs followed by compound addition and measured after 4 hrs in presence of MG-132 by immuno-precipicitation analysis; type: cell-based; conditions: DDE = dose-dependent effect
T3 sequence (whole entry): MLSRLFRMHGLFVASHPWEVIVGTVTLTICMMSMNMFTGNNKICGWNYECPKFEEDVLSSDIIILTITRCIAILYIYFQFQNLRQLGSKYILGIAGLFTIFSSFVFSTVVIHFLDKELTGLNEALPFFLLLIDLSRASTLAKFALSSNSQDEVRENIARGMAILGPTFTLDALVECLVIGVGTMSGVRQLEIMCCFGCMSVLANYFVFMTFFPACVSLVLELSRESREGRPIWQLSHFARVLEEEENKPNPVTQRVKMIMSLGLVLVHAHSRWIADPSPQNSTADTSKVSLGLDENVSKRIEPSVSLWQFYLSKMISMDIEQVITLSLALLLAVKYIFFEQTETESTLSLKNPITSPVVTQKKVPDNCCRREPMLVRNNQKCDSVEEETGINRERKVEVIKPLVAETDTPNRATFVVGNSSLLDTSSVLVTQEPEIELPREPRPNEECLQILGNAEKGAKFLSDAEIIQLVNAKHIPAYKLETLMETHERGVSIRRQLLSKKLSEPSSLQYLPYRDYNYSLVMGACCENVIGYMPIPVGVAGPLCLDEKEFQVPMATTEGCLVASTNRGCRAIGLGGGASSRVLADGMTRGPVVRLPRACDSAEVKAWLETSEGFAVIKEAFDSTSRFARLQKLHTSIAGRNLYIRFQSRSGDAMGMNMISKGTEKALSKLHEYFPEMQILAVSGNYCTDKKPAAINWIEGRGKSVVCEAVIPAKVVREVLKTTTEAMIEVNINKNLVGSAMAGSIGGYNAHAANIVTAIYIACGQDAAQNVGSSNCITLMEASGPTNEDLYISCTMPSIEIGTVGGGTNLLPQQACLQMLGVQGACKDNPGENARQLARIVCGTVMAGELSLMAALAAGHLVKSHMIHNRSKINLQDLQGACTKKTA

[13] = Toxicity in human SV589 cells assessed as cholesterol accumulation in lysosome at 10 uM incubated for 16 hrs by immunofluorescence based confocal microscopy; type: cell-based; conditions: sv-589, 16 h
[14] = test system: RAW264.7; test: Downregulation of LPS-stimulated IL-1-beta mRNA levels in mouse RAW264.7 cells pretreated with LPS for 2 hrs followed by compound treatment for 24 hrs by SYBR green dye based qRT-PCR analysis; type: functional, cell-based; conditions: dose <= 2.0 µM, DDE = dose-dependent effect

- Activity [2]: Dde
- EC50 [7]: 220 nM
- Activity [12]: Dde
SMILES: CC(=O)n1ncc2c1C(C)(C)C1=CC[C@H]3[C@@H]4CC[C@H]([C@H](C)CCC(=O)N5CCOCC5)[C@@]4(C)CC[C@@H]3[C@@]1(C)C2
- Activity [1]: Dde
- fold change (FC) [3]: 0.3
- Activity [4]: Dde
- fold change (FC) [5]: 0.1
- fold change (FC) [6]: 0.1
- Activity [8]: Dde
- Activity [9]: Dde
- Activity [10]: Dde
- Activity [11]: Dde
- Activity [13]: Non-Toxic
- Activity [14]: Dde
